Our source for the EC50 values is PubChem BioAssay AID1794811.

In this test the target is High affinity choline transporter 1 (Homo sapiens) (UniProt Q9GZV3). Put plainly: PubChem AID 1794811. The following applies: HEK-293 JumpIN-SLC5A7, FLIPR membrane potential dye.
Sequence of High affinity choline transporter 1 (Homo sapiens) (Q9GZV3 whole entry, looked up): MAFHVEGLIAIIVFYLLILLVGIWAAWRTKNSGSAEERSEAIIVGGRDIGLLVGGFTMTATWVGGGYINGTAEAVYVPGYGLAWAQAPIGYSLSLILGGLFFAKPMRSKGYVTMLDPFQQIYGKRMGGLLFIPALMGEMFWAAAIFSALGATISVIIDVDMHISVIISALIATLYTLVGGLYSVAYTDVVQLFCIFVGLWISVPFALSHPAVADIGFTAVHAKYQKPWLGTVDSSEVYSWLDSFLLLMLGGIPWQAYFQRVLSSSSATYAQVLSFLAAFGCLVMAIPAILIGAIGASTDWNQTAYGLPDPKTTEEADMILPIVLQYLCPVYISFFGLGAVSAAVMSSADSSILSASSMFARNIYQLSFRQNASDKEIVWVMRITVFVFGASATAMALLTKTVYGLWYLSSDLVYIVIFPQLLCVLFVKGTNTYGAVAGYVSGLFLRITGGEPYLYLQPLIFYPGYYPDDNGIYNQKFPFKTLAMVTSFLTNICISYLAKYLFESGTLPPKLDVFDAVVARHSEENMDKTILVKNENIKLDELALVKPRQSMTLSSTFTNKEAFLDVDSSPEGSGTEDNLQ

Consider `C[N+](C)(C)CCO`, for which the EC50 is 17 µM.

A word on the EC50: it is the concentration giving half of the maximal effect.
